For data set [1], the system named is HT-29. As to the kind of experiment: Cytotoxicity against human HT-29 cells assessed as cell growth inhibition at 50 uM after 24 hrs by MTT assay. It is filed as functional, cell-based.
The subject of another data set is RKO. As to the kind of experiment: Cytotoxicity against human RKO cells assessed as cell growth inhibition at 50 uM after 24 to 72 hrs by MTT assay. In kind it is functional, cell-based. Conditions: time 24-72 hrs.
The target of data set [2] is T1, P2X purinoceptor 7 (Homo sapiens) (UniProt Q99572).
T1 sequence (whole entry): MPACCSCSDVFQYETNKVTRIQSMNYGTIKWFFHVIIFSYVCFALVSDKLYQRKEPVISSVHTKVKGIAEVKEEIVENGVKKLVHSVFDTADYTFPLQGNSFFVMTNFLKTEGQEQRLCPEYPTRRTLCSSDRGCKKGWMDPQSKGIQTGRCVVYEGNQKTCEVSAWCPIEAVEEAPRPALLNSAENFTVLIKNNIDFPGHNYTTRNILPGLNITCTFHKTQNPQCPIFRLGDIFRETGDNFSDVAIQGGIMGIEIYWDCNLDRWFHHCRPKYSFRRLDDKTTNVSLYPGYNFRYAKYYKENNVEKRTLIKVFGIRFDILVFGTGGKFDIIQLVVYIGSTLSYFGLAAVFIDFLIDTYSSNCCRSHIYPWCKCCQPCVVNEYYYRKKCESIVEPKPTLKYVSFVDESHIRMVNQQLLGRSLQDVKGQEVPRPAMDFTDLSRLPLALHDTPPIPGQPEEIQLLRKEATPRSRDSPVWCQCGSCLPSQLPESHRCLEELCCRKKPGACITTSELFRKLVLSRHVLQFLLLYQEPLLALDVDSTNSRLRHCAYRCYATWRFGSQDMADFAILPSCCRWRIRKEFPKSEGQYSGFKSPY
As to the kind of experiment: Antagonist activity at human P2X7R expressed in human HT-29 cells assessed as reduction in ethidium bromide uptake at 100 uM in presence of BzATP. Conditions: filed as antagonist. In kind it is cell-based.

Data set [3] concerns the target T1, P2X purinoceptor 7 (Homo sapiens). As to the kind of experiment: Antagonist activity at human P2X7R expressed in human RKO cells assessed as reduction in ethidium bromide uptake at 100 uM in presence of BzATP. In kind it is cell-based.
The subject of data set [4] is HT-29. As to the kind of experiment: Cytotoxicity against human HT-29 cells assessed as cell growth inhibition at 50 uM after 48 to 72 hrs by MTT assay. It is filed as functional, cell-based. The note with it: time 48-72 hrs.
Data set [5] deals with T2, P2X purinoceptor 7 (Mus musculus) (UniProt Q9Z1M0).
T2 sequence (whole entry): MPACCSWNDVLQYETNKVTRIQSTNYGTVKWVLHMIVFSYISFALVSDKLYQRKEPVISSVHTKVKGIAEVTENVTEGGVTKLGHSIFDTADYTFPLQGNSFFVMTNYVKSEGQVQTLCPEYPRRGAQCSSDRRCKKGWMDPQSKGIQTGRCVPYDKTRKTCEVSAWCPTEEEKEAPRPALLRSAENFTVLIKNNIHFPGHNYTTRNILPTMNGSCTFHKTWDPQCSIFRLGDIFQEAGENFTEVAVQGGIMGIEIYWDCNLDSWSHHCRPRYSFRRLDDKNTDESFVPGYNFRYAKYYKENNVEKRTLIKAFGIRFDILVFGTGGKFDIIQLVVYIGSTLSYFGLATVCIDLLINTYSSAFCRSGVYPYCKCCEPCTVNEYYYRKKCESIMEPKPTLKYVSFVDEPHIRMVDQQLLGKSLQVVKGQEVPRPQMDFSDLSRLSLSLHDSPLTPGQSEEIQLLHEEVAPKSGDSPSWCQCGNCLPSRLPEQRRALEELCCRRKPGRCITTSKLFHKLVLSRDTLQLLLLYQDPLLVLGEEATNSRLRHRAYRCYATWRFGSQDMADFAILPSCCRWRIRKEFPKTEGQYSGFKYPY
As to the kind of experiment: Antagonist activity at mouse P2X7R expressed in mouse CT26 cells assessed as reduction in ethidium bromide uptake by cells at 100 uM in presence of BzATP. In kind it is cell-based.

Data set [6] deals with HT-29. As to the kind of experiment: Antimigratory activity against human HT-29 cells assessed as reversal of BzATP induced cell migration at 50 uM. It is filed as functional, cell-based.
In the next data set the test system is HUVEC. As to the kind of experiment: Cytotoxicity against HUVEC cells assessed as reduction in cell growth inhibition at 50 uM measured after 24 to 72 hrs by MTT assay. It is filed as cell-based. The note with it: human, time 24-72 hrs.

These results are taken from ChEMBL document CHEMBL5053513, “Discovery of bilirubin as novel P2X7R antagonist with anti-tumor activity” (Bioorg Med Chem Lett, 2021).

Calls of active or inactive are those of the source. The calls are words filed in the database; no cut-off is given here.

Take `COc1ccc(CC(=O)NC(N/C(=N/C#N)Nc2cccc3ncccc23)C(C)(C)C)cc1OC` (stereo not drawn): the result (in the data set with HT-29 [1]; with RKO; in data set [3]; in data set [5]) was inactive. The result (in data set [2]; in the data set with HT-29 [4]) was Active.

For `CCOc1ccc(-n2c(=O)[nH]c3c(C(N)=O)nc(-c4cc(F)ccc4F)nc32)cc1`, the outcome (with HT-29 [1]; in data set [2]; with HT-29 [4]; in the data set on HT-29 [6]) was Active. The result (in the data set with RKO; in data set [3]) was inactive. Moreover, the Activity entry in the data set on HUVEC is “Toxic”.
